Laboratory results: PubChem BioAssay (NCI)
Values joined by “and” are separate entries in the source; they are usually repeats but may differ in a detail not shown here. Equal entries are not always repeated.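 Five concentrations, 48 hours, 96-well plates. GI50 = concentration required for 50% inhibition of growth. TGI is the concentration that stops growth completely.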

How the values were obtained:
Assay in all cases: NCI-60 cell line screen, 48 h
[1] = test system: HOP-92 NSCLC
[2] = test system: MDA-MB-435
[3] = test system: 786-0 renal
[4] = test system: HCT-116 colon
[5] = test system: UACC-62 melanoma
[6] = test system: SF-295 CNS
[7] = test system: KM12 colon
[8] = test system: RXF 393 renal
[9] = test system: HCT-15 colon
[10] = test system: UO-31 renal

Row | SMILES | GI50 [1] | TGI [1] | GI50 [2] | TGI [2] | GI50 [3] | TGI [3] | GI50 [4] | TGI [4] | GI50 [5] | TGI [5] | GI50 [6] | TGI [6] | GI50 [7] | TGI [7] | GI50 [8] | TGI [8] | GI50 [9] | TGI [9] | GI50 [10] | TGI [10]
1 | CCCCCCCCOC(=O)c1cc(O)c(O)c(O)c1 | 0.686 µM | 15.6 µM | 1.53 µM | 16.5 µM | 2.46 µM | 11.9 µM | 1.97 µM | 12.9 µM | 3.27 µM | 15.3 µM | 2.23 µM | 8.47 µM | 2.9 µM | 17.4 µM | 5.45 µM | 22 µM | 1.57 µM | 18.3 µM | 0.279 µM | 2.9 µM
2 | COc1ccc(S(=O)(=O)N2CCCCC2)cc1NC(=O)c1[nH]c(C)c2c1CCCCC2=O | 0.59 µM | 48.6 µM | 2.49 µM | > 100 µM | 1.06 µM | > 100 µM | 1.32 µM | 19.3 µM | 0.356 µM | 7.74 µM | 2.52 µM | > 100 µM | 4.36 µM | > 100 µM | 0.818 µM | 4.09 µM | 1.15 µM | > 100 µM | 0.379 µM | 40.7 µM
3 | Cc1ccc2nc(NC(=O)CSC(=S)N3CCN(Cc4ccccc4)CC3)sc2c1 | 4.05 µM | > 100 µM | > 100 µM | > 100 µM | > 100 µM | > 100 µM | > 96.7 µM | > 100 µM | > 100 µM | > 100 µM | > 100 µM | > 100 µM | > 94.3 µM | > 100 µM | > 100 µM | > 100 µM | > 100 µM | > 100 µM | > 79.5 µM | > 100 µM
4 | CC(=O)OC1C(O)COC(Oc2c(C)c3c4c(c2O)[C@@H](C)CC[C@@H]4[C@@H](C)C[C@H]3C=C(C)C)C1O (some centres undefined) | 15.6 µM | 32 µM | 24 µM | 67.4 µM | 27 µM | > 100 µM | 21.1 µM | > 100 µM | 16.3 µM | 36 µM | 18.1 µM | 35.7 µM | 14.8 µM | 30.8 µM | 7.81 µM | 25.4 µM | 15.2 µM | 31.7 µM | 30 µM | > 100 µM
5 | O=C1c2ccccc2C(=O)c2c1c(NCCNCCO)c1cc[nH]c1c2NCCNCCO | 3.06 µM | 16.5 µM | 3.03 µM | 11.9 µM | 3.87 µM | > 36.7 µM | 1.27 µM | > 21.5 µM | 1.48 µM | – | 4.37 µM | 43 µM | 4.34 µM | > 39.9 µM | 2.59 µM | 13.2 µM | > 70.9 µM | > 100 µM | 62.9 µM | > 100 µM
6 | CCN(CCc1ccc(F)cc1)c1ccc(CO)c(Cl)c1 | 1.94 µM | 13.5 µM | 15.6 µM | 31.8 µM | 12.2 µM | 27 µM | 1.85 µM | 13.5 µM | 1.32 µM | 8.41 µM | 3.44 µM | 17.6 µM | 15 µM | 30 µM | 4.72 µM | 19.9 µM | 9.84 µM | 24.6 µM | 11.1 µM | 23.8 µM
7 | COc1ccc(-n2nc(C)c3c(Nc4ccc(NC(=O)Nc5cc(C(F)(F)F)ccc5F)cc4)ncnc32)cc1 | 2.23 µM | 6.26 µM | 2.44 µM | 6.51 µM | 2.04 µM | 5.2 µM | 2.81 µM | 10.3 µM | 1.88 µM | 4.34 µM | 2.06 µM | 4.43 µM | 2.55 µM | 7.32 µM | 1.09 µM | 2.82 µM | 2.3 µM | 6.31 µM | 1.79 µM | 7.04 µM
8 | c1ccc(CN2CCC3(CC2)ONC2=NCCN23)cc1 | 29.3 µM | 59.1 µM | 91.5 µM | > 100 µM | 42.6 µM | > 100 µM | 49.1 µM | > 100 µM | 70.8 µM | > 100 µM | > 100 µM | > 100 µM | 58.5 µM | > 100 µM | 88.1 µM | > 100 µM | 46.8 µM | > 100 µM | 22.3 µM | > 100 µM
9 | CCOc1ccc2c(-c3ccnc(Nc4cccc(C(F)(F)F)c4)n3)cnn2n1 | 5.05 µM | 24 µM | 9.93 µM | > 25 µM | 7.3 µM | > 19.6 µM | 6.04 µM | 15.2 µM | 11.5 µM | > 25 µM | > 25 µM | > 25 µM | 5.07 µM | 14 µM | 14.2 µM | > 25 µM | > 23.8 µM | > 25 µM | > 25 µM | > 25 µM
10 | CC(=O)c1ccc(NCn2nc(-c3ccccc3O)oc2=S)cc1 | 42.8 µM | > 100 µM | > 100 µM | > 100 µM | 74.1 µM | > 100 µM | > 100 µM | > 100 µM | 35.8 µM | > 100 µM | > 100 µM | > 100 µM | > 100 µM | > 100 µM | 24.6 µM | 72.8 µM | 23.4 µM | 49.3 µM | > 100 µM | > 100 µM
11 | CCCCCn1ncc(-c2c(O)c(O)cc3c(O)c(-c4c(C)cc5c(-c6cnn(CCCCC)n6)c(O)c(O)cc5c4O)c(C)cc23)n1 | 0.0723 µM | 0.242 µM | 0.109 µM | 5.02 µM | 0.171 µM | 2.61 µM | 0.0262 µM | 4.07 µM | 0.145 µM | 1.27 µM | 0.108 µM | 4.6 µM | 0.101 µM | 5.25 µM | 0.112 µM | 6.45 µM | 0.0976 µM | 5.01 µM | 0.18 µM | 1.84 µM
12 | CN(C)c1ccc2c(SCC(=O)OCC(=O)[C@@]3(O)CC[C@H]4[C@@H]5CCC6=CC(=O)C=C[C@]6(C)[C@H]5C(=O)C[C@@]43C)c3ccc(N(C)C)cc3nc2c1 | – | > 64.6 µM | – | > 72.1 µM | – | > 47.4 µM | – | > 100 µM | – | 54.6 µM | – | > 100 µM | – | > 100 µM | – | > 57 µM | – | 32.1 µM | – | 24.8 µM
13 | COc1cc2c(cc1OCCN1C(=O)c3cccc4cccc(c34)C1=O)N=C[C@@H]1CCCN1C2=O | 19.5 µM | 17.3 µM and 55.4 µM | 16 µM | 25 µM and 35.9 µM | 16.5 µM | 14.7 µM and 33.9 µM | 20.6 µM | 14.5 µM and 45.4 µM | 17.8 µM | 14.9 µM and 37.5 µM | 32 µM | 50 µM and > 100 µM | 12.4 µM | 50 µM and 24.9 µM | 20.9 µM | 15 µM and 36.3 µM | 18.6 µM | 21.4 µM and 40.2 µM | 16.8 µM | 15.8 µM and 30.5 µM
14 | Cc1cc2cc(Oc3ccnc(Nc4cccc(CS(=O)(=O)NCCN(C)C)c4)n3)ccc2[nH]1 | 1.78 µM | 5.68 µM | 5.37 µM | 18.4 µM | 4.46 µM | 17 µM | 3.33 µM | 14 µM | 3.85 µM | 14.4 µM | 8.04 µM | 21.5 µM | 1.29 µM | 13.3 µM | 3.48 µM | 15.8 µM | 11 µM | 24.2 µM | 3.14 µM | 14.9 µM
